According to ChEMBL document CHEMBL5543122, “Discovery of HC-7366: An Orally Bioavailable and Efficacious GCN2 Kinase Activator” (J Med Chem, 2024):
Calls of active or inactive are those of the source. No cut-off for these calls is given here.

Key:
[1] = target: T1, Eukaryotic translation initiation factor 2-alpha kinase 3 (Homo sapiens, UniProt Q9NZJ5); test: Activation of PERK in HEK293 cells transfected with ATF4 response element preincubated for 30 mins followed by tunicamycin addition and measured after 6 hrs by One-Glo reagent based plate reader assay; type: cell-based
T1 sequence (Q9NZJ5 whole entry): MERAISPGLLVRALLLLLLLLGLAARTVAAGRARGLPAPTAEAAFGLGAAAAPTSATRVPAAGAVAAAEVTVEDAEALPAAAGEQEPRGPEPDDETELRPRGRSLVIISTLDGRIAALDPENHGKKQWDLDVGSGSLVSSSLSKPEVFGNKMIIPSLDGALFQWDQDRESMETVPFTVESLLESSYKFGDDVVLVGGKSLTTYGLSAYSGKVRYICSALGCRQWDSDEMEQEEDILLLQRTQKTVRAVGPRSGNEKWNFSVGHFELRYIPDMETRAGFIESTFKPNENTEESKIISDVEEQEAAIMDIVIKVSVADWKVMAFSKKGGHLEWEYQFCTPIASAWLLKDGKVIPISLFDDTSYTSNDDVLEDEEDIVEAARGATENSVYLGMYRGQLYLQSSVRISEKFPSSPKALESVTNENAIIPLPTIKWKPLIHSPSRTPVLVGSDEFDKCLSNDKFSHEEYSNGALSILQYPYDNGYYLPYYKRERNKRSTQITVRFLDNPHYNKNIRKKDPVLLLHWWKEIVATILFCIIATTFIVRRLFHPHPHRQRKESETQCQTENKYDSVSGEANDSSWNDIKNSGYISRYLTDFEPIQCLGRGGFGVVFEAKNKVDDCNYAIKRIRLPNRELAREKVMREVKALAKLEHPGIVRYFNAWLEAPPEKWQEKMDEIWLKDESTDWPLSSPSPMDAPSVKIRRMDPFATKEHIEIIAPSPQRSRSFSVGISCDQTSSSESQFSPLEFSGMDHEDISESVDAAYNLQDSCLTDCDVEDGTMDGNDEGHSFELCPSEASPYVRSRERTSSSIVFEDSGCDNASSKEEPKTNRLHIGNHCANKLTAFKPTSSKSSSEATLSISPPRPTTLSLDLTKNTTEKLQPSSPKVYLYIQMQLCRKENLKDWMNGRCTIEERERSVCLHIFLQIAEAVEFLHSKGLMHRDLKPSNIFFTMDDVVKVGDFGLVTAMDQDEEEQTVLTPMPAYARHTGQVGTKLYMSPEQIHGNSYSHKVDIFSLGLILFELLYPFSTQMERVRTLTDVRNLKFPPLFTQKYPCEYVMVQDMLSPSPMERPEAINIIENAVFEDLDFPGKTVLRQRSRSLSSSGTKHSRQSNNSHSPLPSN

physchem = details: 1-octanol/PBS, pH 7.4
[2] = target: T2, Eukaryotic translation initiation factor 2-alpha kinase 3 (Homo sapiens) (UniProt Q9NZJ5); test: Activation of PERK in HEK293 cells transfected with ATF4 response element assessed as unbound effective concentration preincubated for 30 mins followed by tunicamycin addition and measured after 6 hrs by One-Glo reagent based plate reader assay; type: cell-based; details: filed as activator, time 6.5 hrs
T2 sequence (whole entry): T1 sequence (Q9NZJ5 whole entry)

[3] = Volume of distribution at steady state in Sprague-Dawley rat at 1 mg/kg, iv measured upto 24 hrs; type: ADME, organism-based; details: in vivo, read-out: Vdss
[4] = Unbound Cmax in Sprague-Dawley rat at 3 mg/kg, po measured upto 24 hrs; type: ADME, organism-based; details: in vivo
[5] = Intrinsic clearance in human hepatocytes assessed per 10^4 cells at 1 uM measured upto 120 mins by UPLC-MS/MS analysis; type: ADME, cell-based, Hepatocyte; details: 2 h
[6] = Intrinsic clearance in rat hepatocytes assessed per 10^4 cells at 1 uM measured upto 120 mins by UPLC-MS/MS analysis; type: ADME, cell-based, Hepatocyte; details: 2 h
[7] = Unbound AUC in Sprague-Dawley rat at 3 mg/kg, po measured upto 24 hrs; type: ADME, organism-based; details: in vivo
[8] = Protein binding in HEK293 cells assessed as free fraction; type: ADME, cell-based; details: human
[9] = Cmax in Sprague-Dawley rat at 3 mg/kg, po measured upto 24 hrs; type: ADME, organism-based; details: in vivo
[10] = Oral bioavailability in Sprague-Dawley rat at 3 mg/kg measured upto 24 hrs; type: ADME, organism-based; details: in vivo; for F: po, 3 mg/kg, 24 h
[11] = Unbound clearance in Sprague-Dawley rat plasma at 1 mg/kg, iv measured upto 24 hrs; type: ADME, organism-based; details: in vivo
[12] = Unbound fraction in Sprague-Dawley rat plasma at 1 mg/kg, iv measured upto 24 hrs; type: ADME, organism-based
[13] = Half-life in Sprague-Dawley rat at 1 mg/kg, iv measured upto 24 hrs; type: ADME, organism-based; details: in vivo
[14] = Unbound volume of distribution at steady state in Sprague-Dawley rat at 1 mg/kg, iv measured upto 24 hrs; type: ADME, organism-based; details: in vivo
Cytochrome P450 3A4 = Cytochrome P450 3A4 (Homo sapiens, UniProt P08684); test: Inhibition of CYP3A4 in human liver microsomes using midazolam substrate incubated for 5 mins in presence of NADPH by UPLC-MS/MS analysis
eIF-2-alpha kinase GCN2 [15] = target: T3, eIF-2-alpha kinase GCN2 (Homo sapiens, UniProt Q9P2K8); details: HEK293, filed as activator, time 6.5 hrs
eIF-2-alpha kinase GCN2 [16] = target: T3, eIF-2-alpha kinase GCN2; test: Inhibition of GCN2 (unknown origin) using GFP-eIF2alpha as substrate incubated for 1.5 hrs in presence of ATP by plate reader analysis
eIF-2-alpha kinase GCN2 [17] = target: T3, eIF-2-alpha kinase GCN2; test: Activation of GCN2 in HEK293 cells transfected with ATF4 response element preincubated for 30 mins followed by halofuginone addition and measured after 6 hrs by One-Glo reagent based plate reader assay; type: cell-based
Mus musculus [18] = test: In vivo activation of GCN2 in BALB/c nude mouse xenografted with human HT-1080 cells assessed as […] ATF4 protein level in tumor at 0.3 to 3 mg/kg after 6 hrs; type: functional, organism-based; details: dose 0.3-3 mg/kg
MOLM-16 = test: Antitumor activity against human MOLM16 cells xenografted in BALB/c nude mouse assessed as reduction in tumor growth at 1 to 3 mg/kg administered twice a day for 17 days; type: functional, organism-based; details: dose 1-3 mg/kg, time 17.0 day
Mus musculus [19] = test: In vivo activation of GCN2 in BALB/c nude mouse xenografted with human HT-1080 cells assessed as […] ASNS protein level in tumor at 0.3 to 3 mg/kg after 6 hrs; type: functional, organism-based; details: dose 0.3-3 mg/kg

T3 sequence (Q9P2K8 whole entry): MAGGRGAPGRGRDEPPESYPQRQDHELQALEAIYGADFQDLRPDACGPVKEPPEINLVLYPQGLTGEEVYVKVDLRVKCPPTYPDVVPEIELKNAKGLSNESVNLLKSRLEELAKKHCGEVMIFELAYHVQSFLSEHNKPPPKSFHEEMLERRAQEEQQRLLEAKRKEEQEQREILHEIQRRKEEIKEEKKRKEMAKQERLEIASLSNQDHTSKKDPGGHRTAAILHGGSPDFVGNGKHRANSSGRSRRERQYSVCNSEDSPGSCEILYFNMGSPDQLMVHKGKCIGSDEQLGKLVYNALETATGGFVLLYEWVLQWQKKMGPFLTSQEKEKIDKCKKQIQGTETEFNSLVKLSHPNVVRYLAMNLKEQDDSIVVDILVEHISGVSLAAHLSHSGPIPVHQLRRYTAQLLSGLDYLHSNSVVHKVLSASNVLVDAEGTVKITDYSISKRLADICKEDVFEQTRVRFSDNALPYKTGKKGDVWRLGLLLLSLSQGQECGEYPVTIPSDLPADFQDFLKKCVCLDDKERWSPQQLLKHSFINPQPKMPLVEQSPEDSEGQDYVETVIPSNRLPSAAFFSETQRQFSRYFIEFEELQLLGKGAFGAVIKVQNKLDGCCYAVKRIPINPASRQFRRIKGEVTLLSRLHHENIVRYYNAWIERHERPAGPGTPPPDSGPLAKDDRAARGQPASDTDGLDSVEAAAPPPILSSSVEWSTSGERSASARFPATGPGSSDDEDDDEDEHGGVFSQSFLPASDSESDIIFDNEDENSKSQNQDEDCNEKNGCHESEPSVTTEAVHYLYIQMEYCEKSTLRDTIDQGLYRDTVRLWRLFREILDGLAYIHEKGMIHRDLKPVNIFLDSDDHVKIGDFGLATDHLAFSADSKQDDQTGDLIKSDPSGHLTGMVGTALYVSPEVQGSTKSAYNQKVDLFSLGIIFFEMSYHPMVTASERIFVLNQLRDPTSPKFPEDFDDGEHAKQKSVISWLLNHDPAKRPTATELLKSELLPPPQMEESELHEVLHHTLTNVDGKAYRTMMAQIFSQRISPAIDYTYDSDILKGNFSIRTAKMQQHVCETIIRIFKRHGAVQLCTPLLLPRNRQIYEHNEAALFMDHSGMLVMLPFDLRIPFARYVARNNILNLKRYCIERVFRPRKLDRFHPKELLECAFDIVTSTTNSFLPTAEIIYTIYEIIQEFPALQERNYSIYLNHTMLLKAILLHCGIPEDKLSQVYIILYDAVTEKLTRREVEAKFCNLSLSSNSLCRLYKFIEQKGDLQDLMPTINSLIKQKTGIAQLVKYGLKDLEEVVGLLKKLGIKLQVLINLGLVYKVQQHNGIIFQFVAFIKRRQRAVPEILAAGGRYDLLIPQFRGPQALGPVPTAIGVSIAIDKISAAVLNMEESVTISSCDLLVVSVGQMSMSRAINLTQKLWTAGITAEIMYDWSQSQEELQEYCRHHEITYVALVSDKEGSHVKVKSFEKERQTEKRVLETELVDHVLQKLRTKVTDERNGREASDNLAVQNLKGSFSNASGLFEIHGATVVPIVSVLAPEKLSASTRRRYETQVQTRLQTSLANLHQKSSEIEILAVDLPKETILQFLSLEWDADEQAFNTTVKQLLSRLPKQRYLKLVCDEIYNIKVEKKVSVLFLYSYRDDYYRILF
Chain of Cytochrome P450 3A4 (P08684 whole entry): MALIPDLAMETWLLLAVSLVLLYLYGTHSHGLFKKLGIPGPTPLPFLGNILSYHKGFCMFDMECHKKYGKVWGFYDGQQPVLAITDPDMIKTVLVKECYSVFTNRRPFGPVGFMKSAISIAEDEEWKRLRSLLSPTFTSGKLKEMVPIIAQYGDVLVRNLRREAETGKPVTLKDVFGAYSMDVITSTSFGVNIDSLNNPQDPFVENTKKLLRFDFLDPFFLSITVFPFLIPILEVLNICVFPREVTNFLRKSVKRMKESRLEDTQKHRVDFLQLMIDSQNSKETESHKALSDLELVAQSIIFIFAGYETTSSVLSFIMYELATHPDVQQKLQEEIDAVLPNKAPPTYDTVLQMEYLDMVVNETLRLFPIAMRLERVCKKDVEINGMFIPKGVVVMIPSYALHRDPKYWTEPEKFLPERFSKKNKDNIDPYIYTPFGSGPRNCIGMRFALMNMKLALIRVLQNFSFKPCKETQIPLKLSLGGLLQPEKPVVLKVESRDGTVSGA

Compound	EC50 [1]	logD at 1 h (physchem)	fEC50 [2]	Vd [3]	fCmax [4]	CLH [5]	CLH [6]	fAUC [7]	fraction unbound [8]	Cmax [9]	F [10]	CL free [11]	fraction unbound at 24 h [12]	half-life [13]	fVdss [14]	further results
CNC(=O)c1ncn2cc(-c3c(F)ccc(NS(=O)(=O)c4cc(F)cnc4OC)c3F)ccc12	> 10000 nM	2.3														
CNC(=O)c1ncn2c(F)c(-c3c(F)ccc(NS(=O)(=O)c4cc(Cl)cnc4OC)c3F)ccc12	1500 nM	3	350 nM													
CNC(=O)c1n[nH]c2c(F)c(-c3c(F)ccc(NS(=O)(=O)c4cc(Cl)cnc4OC)c3F)ccc12	6100 nM		180 nM	0.11 L/kg	20 nM	5.8 µL/min	11 µL/min	0.13 µM·h	0.03	10.4 µM	25%	88 mL/min/kg	0.002	8.9 h	56 L/kg	
COc1ncc(Cl)cc1S(=O)(=O)Nc1ccc(F)c(-c2ccc3c(-c4ncc[nH]4)n[nH]c3c2F)c1F	1400 nM		55 nM	0.09 L/kg	0.31 nM	4.4 µL/min	8.2 µL/min	0.0011 µM·h	0.04	0.62 µM	1.5%	740 mL/min/kg	0.001	3.8 h	180 L/kg	
CNC(=O)c1ncn2nc(-c3c(F)ccc(NS(=O)(=O)c4cc(Cl)cnc4OC)c3F)ccc12	870 nM		280 nM			3.8 µL/min	5.9 µL/min		0.32							
CNC(=O)c1ncn2c1CC[C@H](c1c(F)ccc(NS(=O)(=O)c3cc(Cl)cnc3OC)c1F)C2	460 nM		240 nM						0.45							IC50 (Cytochrome P450 3A4): 33000 nM; fEC50 (eIF-2-alpha kinase GCN2 [15]): 110 nM; IC50 (eIF-2-alpha kinase GCN2 [16]): 69 nM; EC50 (eIF-2-alpha kinase GCN2 [17]): 240 nM
CNC(=O)c1ncn2cc(-c3c(F)ccc([N-]S(=O)(=O)c4cc(Cl)cnc4OC)c3F)ncc12.[K+]					28 nM			0.14 µM·h		40 µM						bioavailability ([10]; Sprague-Dawley): 88%
COc1ncc(Cl)cc1S(=O)(=O)Nc1ccc(F)c(-c2ccc3c(-c4ncc[nH]4)ncn3c2)c1F	1700 nM		170 nM	0.1 L/kg	16 nM	2.8 µL/min	15 µL/min	0.093 µM·h	0.1	14.3 µM	70%	390 mL/min/kg	0.001	2.4 h	93 L/kg	
CNC(=O)c1ncn2c1CC[C@H](c1c(F)ccc(NS(=O)(=O)c3cc(F)cnc3OC)c1F)C2	1500 nM		1000 nM	0.19 L/kg	180 nM	7.8 µL/min	13 µL/min	0.14 µM·h	0.71	14.2 µM	95%	340 mL/min/kg	0.012	0.9 h	15 L/kg	
CNC(=O)c1ncn2cc(-c3c(F)ccc(NS(=O)(=O)c4cc(F)cnc4C)c3F)ccc12	5800 nM	1.9														
CNC(=O)c1ncn2cc(-c3c(F)ccc(NS(=O)(=O)c4cc(Cl)cnc4OC)c3F)ncc12			2400 nM													Activity (Mus musculus [18]): Active; Activity (MOLM-16): Active; Activity (Mus musculus [19]): Active
CNC(=O)c1ncn2cc(-c3c(F)ccc(NS(=O)(=O)c4cc(Cl)cnc4OC)c3F)ccc12	4900 nM		1100 nM	0.1 L/kg	6.2 nM	9 µL/min	9.8 µL/min	0.029 µM·h	0.22	20.6 µM	54%	930 mL/min/kg	0.001	4.3 h	320 L/kg	
CNC(=O)c1ncn2cc(-c3c(F)ccc(NS(=O)(=O)c4cc(C#N)cnc4OC)c3F)ccc12	> 10000 nM	1.6														
